# The supplement of paper PMC4862054
# Test system: CAL-148
# Test: not given
# Settings: 72 h
# In short: (§1)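 Rows with a drug sensitivity score of zero were dropped, and EC50 was taken from the fitted percent-inhibition dose-response curve, censored at the highest concentration. Data were normalised on each plate to vehicle and a positive kill control and checked by Z'-factor. The assay seeded breast cancer cell lines in 20 µl onto 384-well plates pre-loaded with compound in 5 µl medium for 72 h, then added 2.5 µl CellTiter-Blue for 2 h at 37 °C and read fluorescence at 560/590 nm.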
row,SMILES,"EC50, CellTiter-Blue viability [nM]"
1,C=C(c1ccc(C(=O)O)cc1)c1cc2c(cc1C)C(C)(C)CCC2(C)C [Bexarotene],1730

# Test system: HCC1937
# Test: not given
# Settings: 72 h
# In short: as §1
row,"EC50, CellTiter-Blue viability [nM]",SMILES
1,715,N[C@@H](CSC(c1ccccc1)(c1ccccc1)c1ccccc1)C(=O)O [S-trityl-L-cysteine]
2,99.1,Cn1c(Nc2ccc(C(F)(F)F)cc2)nc2cc(Oc3ccnc(-c4ncc(C(F)(F)F)[nH]4)c3)ccc21 [RAF265]
3,85.3,CN(N=O)C(=O)N[C@@H](C=O)[C@@H](O)[C@H](O)[C@H](O)CO [Streptozocin]

# Test system: CAL-120
# Test: not given
# Settings: 72 h
# In short: as §1
row,SMILES,"EC50, CellTiter-Blue viability [nM]"
1,N[C@@H](CSC(c1ccccc1)(c1ccccc1)c1ccccc1)C(=O)O [S-trityl-L-cysteine],2000
2,Cn1c(Nc2ccc(C(F)(F)F)cc2)nc2cc(Oc3ccnc(-c4ncc(C(F)(F)F)[nH]4)c3)ccc21 [RAF265],77.8

# Test system: MDA-MB-231
# Test: not given
# Settings: 72 h
# In short: as §1
row,"EC50, CellTiter-Blue viability [nM]",SMILES
1,2590,Oc1nc(-c2ccc(C(F)(F)F)cc2)nc2c1CSCC2 [XAV-939]
2,955,N[C@@H](CSC(c1ccccc1)(c1ccccc1)c1ccccc1)C(=O)O [S-trityl-L-cysteine]
3,141,Cn1c(Nc2ccc(C(F)(F)F)cc2)nc2cc(Oc3ccnc(-c4ncc(C(F)(F)F)[nH]4)c3)ccc21 [RAF265]

# Test system: CAL-85-1
# Test: normalised response (% of control), CellTiter-Glo; higher = more viable cells (100 = DMSO, 0 = benzethonium chloride kill control)
# Settings: incubation time: 72 h
# In short: (§2)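 Breast cancer cell lines (20 µl suspension) were seeded into 384-well plates holding compound at 5 concentrations in 10-fold steps over a compound-specific 10,000-fold range, then incubated 72 h. CellTox Green fluorescence (485/520 nm) was read first, then CellTiter-Glo luminescence after 10 min at room temperature. Each plate was normalised to 0.1 % DMSO (100) and a positive kill control (0). Each value is the normalised signal at a single concentration of the series.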
row,SMILES,normalised response [%]
1,O=C1CCC(N2C(=O)c3ccccc3C2=O)C(=O)N1 (configuration not stated) [Thalidomide] (10000 nM),93.5
2,Oc1nc(-c2ccc(C(F)(F)F)cc2)nc2c1CSCC2 [XAV-939] (10000 nM),95.8
3,O=P1(NCCCl)OCCCN1CCCl (configuration not stated) [Ifosfamide] (10000 nM),96.3
4,Clc1ccc(Nc2nnc(Cc3ccncc3)c3ccccc23)cc1 [Vatalanib] (10000 nM),106
5,C[C@@H](Oc1cc(-c2cnn(C3CCNCC3)c2)cnc1N)c1c(Cl)ccc(F)c1Cl [Crizotinib] (1000 nM),92.7
6,CCC1(c2ccc(N)cc2)CCC(=O)NC1=O (configuration not stated) [Aminoglutethimide] (10000 nM),106
7,Cc1ccc(C(=O)N(CCCN)[C@@H](c2oc3cc(Cl)ccc3c(=O)c2Cc2ccccc2)C(C)C)cc1 (100 nM),97.8
8,Cn1c(CCCC(=O)O)nc2cc(N(CCCl)CCCl)ccc21 [Bendamustine] (10000 nM),107
9,CN[C@@H]1C[C@H]2O[C@@](C)([C@@H]1OC)n1c3ccccc3c3c4c(c5c6ccccc6n2c5c31)C(=O)N[C@H]4O [UCN-01] (10000 nM),0.55
10,C#Cc1cccc(Nc2ncnc3cc(OCCOC)c(OCCOC)cc23)c1 [Erlotinib] (10000 nM),40.2
11,N.N.[Cl][Pt][Cl] [Cisplatin] (1000 nM),104
12,Cn1c(Nc2ccc(C(F)(F)F)cc2)nc2cc(Oc3ccnc(-c4ncc(C(F)(F)F)[nH]4)c3)ccc21 [RAF265] (1000 nM),40.7
13,C=C(c1ccc(C(=O)O)cc1)c1cc2c(cc1C)C(C)(C)CCC2(C)C [Bexarotene] (10000 nM),101
14,N[C@@H](CSC(c1ccccc1)(c1ccccc1)c1ccccc1)C(=O)O [S-trityl-L-cysteine] (40000 nM),101
15,CNCc1ccc(-c2[nH]c3cc(F)cc4c3c2CCNC4=O)cc1 [Rucaparib] (10000 nM),93.7
16,CO[C@H]1/C=C\C=C(/C)C(=O)NC2=CC(=O)C(NCCN(C)C)=C(C[C@@H](C)C[C@H](OC)[C@H](O)[C@@H](C)/C=C(\C)[C@@H]1OC(N)=O)C2=O [Alvespimycin] (1000 nM),18.1
17,CN(C)/N=N/c1[nH]cnc1C(N)=O [Dacarbazine] (10000 nM),101
18,Cc1ccc(-n2nc(C(C)(C)C)cc2NC(=O)Nc2ccc(OCCN3CCOCC3)c3ccccc23)cc1 [Doramapimod] (10000 nM),96.1
19,C[C@]12CC[C@@H]3c4ccc(O)cc4C[C@@H](CCCCCCCCC[S+]([O-])CCCC(F)(F)C(F)(F)F)[C@H]3[C@@H]1CC[C@@H]2O (some centres not stated) [Fulvestrant] (1000 nM),95.4
20,Cc1ccc(C(=O)Nc2ccc(CN3CCN(C)CC3)c(C(F)(F)F)c2)cc1C#Cc1cnc2cccnn12 [Ponatinib] (1000 nM),58
21,COc1cc2nccc(Oc3ccc(NC(=O)C4(C(=O)Nc5ccc(F)cc5)CC4)cc3)c2cc1OC [Cabozantinib] (1000 nM),107
22,CC1(C)NC(=O)N(c2ccc([N+](=O)[O-])c(C(F)(F)F)c2)C1=O [Nilutamide] (10000 nM),99.7

# Test system: DU-4475
# Test: as above
# Settings: incubation time: 72 h
# In short: as §2
row,SMILES,normalised response [%]
1,O=C1CCC(N2C(=O)c3ccccc3C2=O)C(=O)N1 (configuration not stated) [Thalidomide] (10000 nM),93.3
2,Oc1nc(-c2ccc(C(F)(F)F)cc2)nc2c1CSCC2 [XAV-939] (10000 nM),87.3
3,O=P1(NCCCl)OCCCN1CCCl (configuration not stated) [Ifosfamide] (10000 nM),87.1
4,Clc1ccc(Nc2nnc(Cc3ccncc3)c3ccccc23)cc1 [Vatalanib] (10000 nM),95.2
5,C[C@@H](Oc1cc(-c2cnn(C3CCNCC3)c2)cnc1N)c1c(Cl)ccc(F)c1Cl [Crizotinib] (1000 nM),103
6,CCC1(c2ccc(N)cc2)CCC(=O)NC1=O (configuration not stated) [Aminoglutethimide] (10000 nM),101
7,Cc1ccc(C(=O)N(CCCN)[C@@H](c2oc3cc(Cl)ccc3c(=O)c2Cc2ccccc2)C(C)C)cc1 (100 nM),92.8
8,Cn1c(CCCC(=O)O)nc2cc(N(CCCl)CCCl)ccc21 [Bendamustine] (10000 nM),101
9,CN[C@@H]1C[C@H]2O[C@@](C)([C@@H]1OC)n1c3ccccc3c3c4c(c5c6ccccc6n2c5c31)C(=O)N[C@H]4O [UCN-01] (10000 nM),3.81
10,C#Cc1cccc(Nc2ncnc3cc(OCCOC)c(OCCOC)cc23)c1 [Erlotinib] (10000 nM),101
11,N.N.[Cl][Pt][Cl] [Cisplatin] (1000 nM),94.7
12,Cn1c(Nc2ccc(C(F)(F)F)cc2)nc2cc(Oc3ccnc(-c4ncc(C(F)(F)F)[nH]4)c3)ccc21 [RAF265] (1000 nM),71.8
13,C=C(c1ccc(C(=O)O)cc1)c1cc2c(cc1C)C(C)(C)CCC2(C)C [Bexarotene] (10000 nM),100
14,N[C@@H](CSC(c1ccccc1)(c1ccccc1)c1ccccc1)C(=O)O [S-trityl-L-cysteine] (40000 nM),92.3
15,CNCc1ccc(-c2[nH]c3cc(F)cc4c3c2CCNC4=O)cc1 [Rucaparib] (10000 nM),74
16,CO[C@H]1/C=C\C=C(/C)C(=O)NC2=CC(=O)C(NCCN(C)C)=C(C[C@@H](C)C[C@H](OC)[C@H](O)[C@@H](C)/C=C(\C)[C@@H]1OC(N)=O)C2=O [Alvespimycin] (1000 nM),0.05
17,CN(C)/N=N/c1[nH]cnc1C(N)=O [Dacarbazine] (10000 nM),107
18,Cc1ccc(-n2nc(C(C)(C)C)cc2NC(=O)Nc2ccc(OCCN3CCOCC3)c3ccccc23)cc1 [Doramapimod] (10000 nM),92.7
19,C[C@]12CC[C@@H]3c4ccc(O)cc4C[C@@H](CCCCCCCCC[S+]([O-])CCCC(F)(F)C(F)(F)F)[C@H]3[C@@H]1CC[C@@H]2O (some centres not stated) [Fulvestrant] (1000 nM),110
20,Cc1ccc(C(=O)Nc2ccc(CN3CCN(C)CC3)c(C(F)(F)F)c2)cc1C#Cc1cnc2cccnn12 [Ponatinib] (1000 nM),77.4
21,COc1cc2nccc(Oc3ccc(NC(=O)C4(C(=O)Nc5ccc(F)cc5)CC4)cc3)c2cc1OC [Cabozantinib] (1000 nM),102
22,CC1(C)NC(=O)N(c2ccc([N+](=O)[O-])c(C(F)(F)F)c2)C1=O [Nilutamide] (10000 nM),97.4

# Test system: MCF-10A
# Test: as above
# Settings: incubation time: 72 h
# In short: as §2
row,SMILES,normalised response [%]
1,O=C1CCC(N2C(=O)c3ccccc3C2=O)C(=O)N1 (configuration not stated) [Thalidomide] (10000 nM),98.8
2,Oc1nc(-c2ccc(C(F)(F)F)cc2)nc2c1CSCC2 [XAV-939] (10000 nM),84.5
3,O=P1(NCCCl)OCCCN1CCCl (configuration not stated) [Ifosfamide] (10000 nM),91.6
4,Clc1ccc(Nc2nnc(Cc3ccncc3)c3ccccc23)cc1 [Vatalanib] (10000 nM),110
5,C[C@@H](Oc1cc(-c2cnn(C3CCNCC3)c2)cnc1N)c1c(Cl)ccc(F)c1Cl [Crizotinib] (1000 nM),102
6,CCC1(c2ccc(N)cc2)CCC(=O)NC1=O (configuration not stated) [Aminoglutethimide] (10000 nM),101
7,Cc1ccc(C(=O)N(CCCN)[C@@H](c2oc3cc(Cl)ccc3c(=O)c2Cc2ccccc2)C(C)C)cc1 (100 nM),96.8
8,Cn1c(CCCC(=O)O)nc2cc(N(CCCl)CCCl)ccc21 [Bendamustine] (10000 nM),114
9,CN[C@@H]1C[C@H]2O[C@@](C)([C@@H]1OC)n1c3ccccc3c3c4c(c5c6ccccc6n2c5c31)C(=O)N[C@H]4O [UCN-01] (10000 nM),0.69
10,C#Cc1cccc(Nc2ncnc3cc(OCCOC)c(OCCOC)cc23)c1 [Erlotinib] (10000 nM),30.9
11,N.N.[Cl][Pt][Cl] [Cisplatin] (1000 nM),94
12,Cn1c(Nc2ccc(C(F)(F)F)cc2)nc2cc(Oc3ccnc(-c4ncc(C(F)(F)F)[nH]4)c3)ccc21 [RAF265] (1000 nM),86.6
13,C=C(c1ccc(C(=O)O)cc1)c1cc2c(cc1C)C(C)(C)CCC2(C)C [Bexarotene] (10000 nM),82.8
14,N[C@@H](CSC(c1ccccc1)(c1ccccc1)c1ccccc1)C(=O)O [S-trityl-L-cysteine] (40000 nM),104
